According to publication PMC7365090, “In crystallo-screening for discovery of human norovirus 3C-like protease inhibitors” (Journal of Structural Biology: X, 2020):
Like-named read-outs stand apart in the source and are kept apart here.

Biological target: T1, SV3CP (Southampton norovirus 3CL^pro) (Southampton virus (serotype 3), UniProt Q04544)
T1 construct: gene ORF1; mature 3C-like protease (NS6) cut from the ORF1 non-structural polyprotein; purified as in Hussey et al. 2011; mass 19,290 Da (intact); dimer in asymmetric unit, putative crystallographic tetramer
T1 sequence (Q04544 1100-1280): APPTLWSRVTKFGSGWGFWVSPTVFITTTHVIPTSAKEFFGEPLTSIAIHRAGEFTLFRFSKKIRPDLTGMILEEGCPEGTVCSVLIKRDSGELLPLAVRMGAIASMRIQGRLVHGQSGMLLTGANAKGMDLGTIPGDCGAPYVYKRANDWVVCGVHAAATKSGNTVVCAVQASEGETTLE
Assay: chromogenic protease assay, […] nm
Type: biochemical

Compound	Ki	Ki (read-out: Ki)
O=C(O)c1csc(-c2ccc(C(F)(F)F)cc2)n1 [J02]	340 µM	
Cc1ccc(CNc2cccc(C(=O)O)c2)s1 [J01]		370 µM
